Reference: paper PMC7615677 (Science translational medicine, 2023)
Read-outs that look alike come from different tables or passages of the source.

Experiments:
[1] = molecular target: T1, H2 (Homo sapiens, UniProt P25021); assay: In vitro pharmacology panel (Eurofins); type: binding; details: read-out: activity (% of DMSO control)
T1 construct: purchased Eurofins (Cerep/DiscoverX SafetyScreen44 in vitro pharmacology panel)
From the text: (§1) Listed values represent the percent change relative to the DMSO control activity. When an IC50 had to be determined, eight different concentrations were included. All values are the mean of assay readout duplicates.

[2] = molecular target: T2, 5-HT3 (Homo sapiens, UniProt P46098); assay: In vitro pharmacology panel (Eurofins); type: binding; details: read-out: activity (% of DMSO control)
T2 construct: purchased Eurofins (Cerep/DiscoverX SafetyScreen44 in vitro pharmacology panel)
T2 sequence (P46098 24-478): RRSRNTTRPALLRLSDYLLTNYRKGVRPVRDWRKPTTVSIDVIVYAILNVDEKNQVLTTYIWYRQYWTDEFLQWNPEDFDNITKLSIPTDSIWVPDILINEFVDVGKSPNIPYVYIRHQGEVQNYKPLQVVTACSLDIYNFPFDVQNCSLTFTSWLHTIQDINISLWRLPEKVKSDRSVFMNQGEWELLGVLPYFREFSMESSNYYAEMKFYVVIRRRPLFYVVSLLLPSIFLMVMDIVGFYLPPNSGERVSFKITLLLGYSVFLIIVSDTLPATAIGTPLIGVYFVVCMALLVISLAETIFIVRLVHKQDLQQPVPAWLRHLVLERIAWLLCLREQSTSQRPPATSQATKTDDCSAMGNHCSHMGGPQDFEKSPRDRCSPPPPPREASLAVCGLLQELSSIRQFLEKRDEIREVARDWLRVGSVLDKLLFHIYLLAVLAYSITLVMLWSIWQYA
From the text: as §1

[3] = molecular target: T3, 5-HT1A (Homo sapiens, UniProt P08908); assay: In vitro pharmacology panel (Eurofins); type: binding; details: read-out: activity (% of DMSO control)
T3 construct: purchased Eurofins (Cerep/DiscoverX SafetyScreen44 in vitro pharmacology panel)
From the text: as §1

[4] = molecular target: T4, 5-HT2B (Homo sapiens, UniProt P41595); assay: In vitro pharmacology panel (Eurofins); type: binding; details: read-out: activity (% of DMSO control)
T4 construct: purchased Eurofins (Cerep/DiscoverX SafetyScreen44 in vitro pharmacology panel)
T4 sequence (P41595 whole entry): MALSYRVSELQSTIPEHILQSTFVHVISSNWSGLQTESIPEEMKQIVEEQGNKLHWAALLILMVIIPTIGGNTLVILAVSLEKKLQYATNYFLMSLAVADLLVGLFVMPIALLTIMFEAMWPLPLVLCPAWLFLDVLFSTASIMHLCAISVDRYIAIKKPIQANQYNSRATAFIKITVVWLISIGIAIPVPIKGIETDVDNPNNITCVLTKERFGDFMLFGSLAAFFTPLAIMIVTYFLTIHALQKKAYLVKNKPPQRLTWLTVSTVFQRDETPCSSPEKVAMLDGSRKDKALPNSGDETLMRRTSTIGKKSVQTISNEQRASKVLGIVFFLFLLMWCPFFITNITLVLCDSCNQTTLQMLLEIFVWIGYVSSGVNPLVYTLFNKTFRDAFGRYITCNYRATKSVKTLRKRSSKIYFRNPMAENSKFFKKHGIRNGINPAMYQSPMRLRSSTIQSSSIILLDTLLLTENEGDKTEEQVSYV
From the text: as §1

[5] = molecular target: T5, D1 (Homo sapiens, UniProt P21728); assay: In vitro pharmacology panel (Eurofins); type: binding; details: read-out: activity (% of DMSO control)
T5 construct: purchased Eurofins (Cerep/DiscoverX SafetyScreen44 in vitro pharmacology panel)
From the text: as §1

[6] = molecular target: T6, V1 a (Homo sapiens, UniProt P37288); assay: In vitro pharmacology panel (Eurofins); type: binding; details: read-out: activity (% of DMSO control)
T6 construct: purchased Eurofins (Cerep/DiscoverX SafetyScreen44 in vitro pharmacology panel)
T6 sequence (P37288 whole entry): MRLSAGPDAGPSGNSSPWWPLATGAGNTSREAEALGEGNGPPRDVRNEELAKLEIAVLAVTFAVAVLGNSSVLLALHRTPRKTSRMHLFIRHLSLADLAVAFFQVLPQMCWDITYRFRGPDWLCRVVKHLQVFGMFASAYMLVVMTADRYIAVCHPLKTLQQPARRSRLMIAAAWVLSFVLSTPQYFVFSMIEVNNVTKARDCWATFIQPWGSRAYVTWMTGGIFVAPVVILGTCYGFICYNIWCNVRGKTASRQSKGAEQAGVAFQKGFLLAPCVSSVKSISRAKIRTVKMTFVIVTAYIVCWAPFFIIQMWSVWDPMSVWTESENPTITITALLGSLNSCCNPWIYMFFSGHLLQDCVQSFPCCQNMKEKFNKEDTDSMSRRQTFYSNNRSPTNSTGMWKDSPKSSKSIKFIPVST
From the text: as §1

[7] = molecular target: T7, κ (KOP) (Rattus norvegicus, UniProt P34975); assay: In vitro pharmacology panel (Eurofins); type: binding; details: read-out: activity (% of DMSO control)
T7 construct: purchased Eurofins (Cerep/DiscoverX SafetyScreen44 in vitro pharmacology panel)
From the text: as §1

[8] = molecular target: T8, 5-HT transporter (Homo sapiens, UniProt P31645); assay: In vitro pharmacology panel (Eurofins); type: binding; details: read-out: activity (% of DMSO control)
T8 construct: purchased Eurofins (Cerep/DiscoverX SafetyScreen44 in vitro pharmacology panel)
From the text: as §1

[9] = molecular target: T9, norepinephrine transporter (Homo sapiens, UniProt P23975); assay: In vitro pharmacology panel (Eurofins); type: binding; details: read-out: activity (% of DMSO control)
T9 construct: purchased Eurofins (Cerep/DiscoverX SafetyScreen44 in vitro pharmacology panel)
T9 sequence (P23975 whole entry): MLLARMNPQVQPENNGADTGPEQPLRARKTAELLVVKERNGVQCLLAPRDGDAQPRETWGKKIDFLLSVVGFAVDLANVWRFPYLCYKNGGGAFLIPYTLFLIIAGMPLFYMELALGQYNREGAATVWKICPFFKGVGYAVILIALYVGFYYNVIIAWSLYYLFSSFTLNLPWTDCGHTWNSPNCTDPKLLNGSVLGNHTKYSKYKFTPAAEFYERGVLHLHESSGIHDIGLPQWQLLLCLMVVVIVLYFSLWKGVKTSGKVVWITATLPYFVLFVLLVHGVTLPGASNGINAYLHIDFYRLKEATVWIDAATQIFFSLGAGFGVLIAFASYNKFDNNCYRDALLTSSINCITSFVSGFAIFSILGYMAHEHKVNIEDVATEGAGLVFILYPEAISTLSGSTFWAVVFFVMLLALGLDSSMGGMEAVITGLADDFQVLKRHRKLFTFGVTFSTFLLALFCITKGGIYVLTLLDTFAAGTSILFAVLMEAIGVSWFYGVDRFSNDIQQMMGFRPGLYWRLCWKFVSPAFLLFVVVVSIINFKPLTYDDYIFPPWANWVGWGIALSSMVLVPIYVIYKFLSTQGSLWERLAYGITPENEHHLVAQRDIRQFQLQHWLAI
From the text: as §1

[10] = molecular target: T10, α1A (Homo sapiens, UniProt P35348); assay: In vitro pharmacology panel (Eurofins); type: binding; details: read-out: activity (% of DMSO control)
T10 construct: purchased Eurofins (Cerep/DiscoverX SafetyScreen44 in vitro pharmacology panel)
From the text: as §1

[11] = molecular target: T11, N neuronal α4β2 (Homo sapiens, UniProt P17787+P43681); assay: In vitro pharmacology panel (Eurofins); type: binding; details: read-out: activity (% of DMSO control)
T11 construct: purchased Eurofins (Cerep/DiscoverX SafetyScreen44 in vitro pharmacology panel)
From the text: as §1

[12] = molecular target: T12, δ (DOP) (Homo sapiens, UniProt P41143); assay: In vitro pharmacology panel (Eurofins); type: binding; details: read-out: activity (% of DMSO control)
T12 construct: purchased Eurofins (Cerep/DiscoverX SafetyScreen44 in vitro pharmacology panel)
From the text: as §1

[13] = molecular target: T13, β2 (Homo sapiens, UniProt P07550); assay: In vitro pharmacology panel (Eurofins); type: binding; details: read-out: activity (% of DMSO control)
T13 construct: purchased Eurofins (Cerep/DiscoverX SafetyScreen44 in vitro pharmacology panel)
T13 sequence (P07550 whole entry): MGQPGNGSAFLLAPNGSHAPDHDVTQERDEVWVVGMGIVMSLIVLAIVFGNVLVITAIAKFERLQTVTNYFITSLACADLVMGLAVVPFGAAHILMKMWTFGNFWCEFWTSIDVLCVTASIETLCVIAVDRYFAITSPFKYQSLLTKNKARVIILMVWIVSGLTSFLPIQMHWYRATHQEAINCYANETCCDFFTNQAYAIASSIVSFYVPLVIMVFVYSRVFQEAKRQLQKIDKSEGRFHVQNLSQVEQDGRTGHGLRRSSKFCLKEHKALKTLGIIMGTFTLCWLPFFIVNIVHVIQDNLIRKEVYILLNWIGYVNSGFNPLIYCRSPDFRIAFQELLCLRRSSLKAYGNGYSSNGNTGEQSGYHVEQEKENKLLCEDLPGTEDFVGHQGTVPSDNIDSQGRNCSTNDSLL
From the text: as §1

[14] = molecular target: T14, M1 (Homo sapiens, UniProt P11229); assay: In vitro pharmacology panel (Eurofins); type: binding; details: read-out: activity (% of DMSO control)
T14 construct: purchased Eurofins (Cerep/DiscoverX SafetyScreen44 in vitro pharmacology panel)
From the text: as §1

[15] = molecular target: T15, β1 (Homo sapiens, UniProt P08588); assay: In vitro pharmacology panel (Eurofins); type: binding; details: read-out: activity (% of DMSO control)
T15 construct: purchased Eurofins (Cerep/DiscoverX SafetyScreen44 in vitro pharmacology panel)
From the text: as §1

[16] = molecular target: T16, μ (MOP) (Homo sapiens, UniProt P35372); assay: In vitro pharmacology panel (Eurofins); type: binding; details: read-out: activity (% of DMSO control)
T16 construct: purchased Eurofins (Cerep/DiscoverX SafetyScreen44 in vitro pharmacology panel)
From the text: as §1

[17] = molecular target: T17, CCK1 (CCKA) (Homo sapiens, UniProt P32238); assay: In vitro pharmacology panel (Eurofins); type: binding; details: read-out: activity (% of DMSO control)
T17 construct: purchased Eurofins (Cerep/DiscoverX SafetyScreen44 in vitro pharmacology panel)
T17 sequence (P32238 whole entry): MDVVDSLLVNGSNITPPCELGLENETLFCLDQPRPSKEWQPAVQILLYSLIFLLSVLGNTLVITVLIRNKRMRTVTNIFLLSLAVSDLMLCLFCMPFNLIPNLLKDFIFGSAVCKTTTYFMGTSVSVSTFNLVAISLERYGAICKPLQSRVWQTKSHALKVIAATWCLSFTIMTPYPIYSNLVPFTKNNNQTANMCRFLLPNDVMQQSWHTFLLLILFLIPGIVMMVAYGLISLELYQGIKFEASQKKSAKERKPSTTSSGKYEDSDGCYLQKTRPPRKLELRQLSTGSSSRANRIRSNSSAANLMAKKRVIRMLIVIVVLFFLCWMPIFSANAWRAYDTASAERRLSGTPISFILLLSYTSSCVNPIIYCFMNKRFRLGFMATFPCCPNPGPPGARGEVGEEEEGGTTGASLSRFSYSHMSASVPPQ
From the text: as §1

[18] = molecular target: T18, 5-HT2A (Homo sapiens, UniProt P28223); assay: In vitro pharmacology panel (Eurofins); type: binding; details: read-out: activity (% of DMSO control)
T18 construct: purchased Eurofins (Cerep/DiscoverX SafetyScreen44 in vitro pharmacology panel)
From the text: as §1

[19] = molecular target: T19, CB1 (Homo sapiens, UniProt P21554); assay: In vitro pharmacology panel (Eurofins); type: binding; details: read-out: activity (% of DMSO control)
T19 construct: purchased Eurofins (Cerep/DiscoverX SafetyScreen44 in vitro pharmacology panel)
From the text: as §1

[20] = molecular target: T20, M2 (Homo sapiens, UniProt P08172); assay: In vitro pharmacology panel (Eurofins); type: binding; details: read-out: activity (% of DMSO control)
T20 construct: purchased Eurofins (Cerep/DiscoverX SafetyScreen44 in vitro pharmacology panel)
From the text: as §1

[21] = molecular target: T21, ETA (Homo sapiens, UniProt P25101); assay: In vitro pharmacology panel (Eurofins); type: binding; details: read-out: activity (% of DMSO control)
T21 construct: purchased Eurofins (Cerep/DiscoverX SafetyScreen44 in vitro pharmacology panel)
T21 sequence (P25101 21-427): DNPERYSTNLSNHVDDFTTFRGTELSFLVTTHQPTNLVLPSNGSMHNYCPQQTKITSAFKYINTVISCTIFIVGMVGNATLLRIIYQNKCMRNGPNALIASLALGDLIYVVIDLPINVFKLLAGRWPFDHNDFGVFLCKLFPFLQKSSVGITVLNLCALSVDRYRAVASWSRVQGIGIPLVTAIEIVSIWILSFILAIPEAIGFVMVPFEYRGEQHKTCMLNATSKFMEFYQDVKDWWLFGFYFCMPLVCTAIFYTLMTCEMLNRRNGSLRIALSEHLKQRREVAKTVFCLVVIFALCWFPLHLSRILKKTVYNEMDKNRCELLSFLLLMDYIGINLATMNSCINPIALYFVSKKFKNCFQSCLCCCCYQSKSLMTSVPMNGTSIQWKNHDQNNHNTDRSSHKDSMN
From the text: as §1

[22] = molecular target: T22, α2A (Homo sapiens, UniProt P08913); assay: In vitro pharmacology panel (Eurofins); type: binding; details: read-out: activity (% of DMSO control)
T22 construct: purchased Eurofins (Cerep/DiscoverX SafetyScreen44 in vitro pharmacology panel)
From the text: as §1

[23] = molecular target: T23, GR (Homo sapiens, UniProt P04150); assay: In vitro pharmacology panel (Eurofins); type: binding; details: read-out: activity (% of DMSO control)
T23 construct: purchased Eurofins (Cerep/DiscoverX SafetyScreen44 in vitro pharmacology panel)
T23 sequence (P04150 whole entry): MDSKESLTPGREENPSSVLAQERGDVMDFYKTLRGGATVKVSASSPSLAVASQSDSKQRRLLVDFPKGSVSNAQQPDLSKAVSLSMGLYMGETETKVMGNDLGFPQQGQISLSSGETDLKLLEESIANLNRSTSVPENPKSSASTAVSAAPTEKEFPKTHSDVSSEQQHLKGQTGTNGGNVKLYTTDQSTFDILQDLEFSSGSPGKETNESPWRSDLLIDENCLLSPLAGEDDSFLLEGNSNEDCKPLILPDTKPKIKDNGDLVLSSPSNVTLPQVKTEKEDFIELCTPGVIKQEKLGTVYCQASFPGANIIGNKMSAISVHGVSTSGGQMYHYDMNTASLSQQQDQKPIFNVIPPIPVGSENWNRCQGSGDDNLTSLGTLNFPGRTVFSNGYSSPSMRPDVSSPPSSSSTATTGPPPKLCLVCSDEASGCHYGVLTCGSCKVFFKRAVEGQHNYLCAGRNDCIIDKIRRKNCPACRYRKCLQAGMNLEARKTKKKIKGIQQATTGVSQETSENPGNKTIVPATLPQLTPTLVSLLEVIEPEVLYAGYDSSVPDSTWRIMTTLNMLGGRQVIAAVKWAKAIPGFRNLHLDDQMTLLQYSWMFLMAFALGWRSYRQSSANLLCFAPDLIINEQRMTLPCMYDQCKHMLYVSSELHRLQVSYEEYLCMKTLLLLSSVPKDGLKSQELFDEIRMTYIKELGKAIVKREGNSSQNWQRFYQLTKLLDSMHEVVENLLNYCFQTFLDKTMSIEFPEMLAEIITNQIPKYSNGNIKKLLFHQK
From the text: as §1

[24] = molecular target: T24, A2A (Homo sapiens, UniProt P29274); assay: In vitro pharmacology panel (Eurofins); type: binding; details: read-out: activity (% of DMSO control)
T24 construct: purchased Eurofins (Cerep/DiscoverX SafetyScreen44 in vitro pharmacology panel)
From the text: as §1

[25] = molecular target: T25, 5-HT1B (Rattus norvegicus, UniProt P28564); assay: In vitro pharmacology panel (Eurofins); type: binding; details: read-out: activity (% of DMSO control)
T25 construct: purchased Eurofins (Cerep/DiscoverX SafetyScreen44 in vitro pharmacology panel)
From the text: as §1

[26] = molecular target: T26, MAO-A (Rattus norvegicus, UniProt P21396); assay: In vitro pharmacology panel (Eurofins); type: binding; details: read-out: activity (% of DMSO control)
T26 construct: purchased Eurofins (Cerep/DiscoverX SafetyScreen44 in vitro pharmacology panel)
From the text: as §1

[27] = molecular target: T27, M3 (Homo sapiens, UniProt P20309); assay: In vitro pharmacology panel (Eurofins); type: binding; details: read-out: activity (% of DMSO control)
T27 construct: purchased Eurofins (Cerep/DiscoverX SafetyScreen44 in vitro pharmacology panel)
From the text: as §1

[28] = molecular target: T28, D2S (Homo sapiens, UniProt P14416); assay: In vitro pharmacology panel (Eurofins); type: binding; details: read-out: activity (% of DMSO control)
T28 construct: purchased Eurofins (Cerep/DiscoverX SafetyScreen44 in vitro pharmacology panel)
T28 sequence (P14416 1-414 isoform P14416-2): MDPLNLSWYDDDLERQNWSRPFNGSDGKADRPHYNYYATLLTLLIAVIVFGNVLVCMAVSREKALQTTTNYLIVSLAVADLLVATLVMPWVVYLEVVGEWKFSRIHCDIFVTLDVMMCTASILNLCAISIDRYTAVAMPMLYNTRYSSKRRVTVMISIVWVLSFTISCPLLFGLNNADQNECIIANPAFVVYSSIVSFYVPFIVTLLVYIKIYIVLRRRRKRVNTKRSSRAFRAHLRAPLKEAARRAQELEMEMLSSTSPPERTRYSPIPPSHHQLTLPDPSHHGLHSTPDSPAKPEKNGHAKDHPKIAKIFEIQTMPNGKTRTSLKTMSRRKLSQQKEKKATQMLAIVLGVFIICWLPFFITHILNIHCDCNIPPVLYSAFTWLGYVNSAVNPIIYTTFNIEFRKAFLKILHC
From the text: as §1

[29] = molecular target: T29, H1 (Homo sapiens, UniProt P35367); assay: In vitro pharmacology panel (Eurofins); type: binding; details: read-out: activity (% of DMSO control)
T29 construct: purchased Eurofins (Cerep/DiscoverX SafetyScreen44 in vitro pharmacology panel)
From the text: as §1

[30] = Human PK and dose prediction (IVIVE, allometry, GastroPlus PBPK); details: plasma; for AUC: read-out: target cumulative total human plasma AUC
From the text: Human plasma clearance was estimated by in vitro/in vivo extrapolation (IVIVE) of data from liver microsomes and allometry using the available in vivo preclinical data. In both cases, renal excretion of unchanged drug was assumed to be negligible (experimentally confirmed in the rat). […] Therefore, the “rule of exponents” was applied and the unbound clearance data were corrected for brain weight ([13]) as described previously ([14]).
The predicted clearance was input along with the data in Table S16 into a physiologically-based pharmacokinetic (PBPK) model (GastroPlus) to simulate human profiles under different dosing conditions. Given that there was no evidence of renal elimination in rats, it was assumed that clearance occurs solely by hepatic metabolism.
Human clearance was estimated using in vitro/in vivo extrapolation (IVIVE) of data obtained in liver microsomes and cryopreserved hepatocytes incorporating binding to microsomes and hepatocytes, plasma protein binding and the blood to plasma ratio. Scaling factors were as described previously ([12]) and liver blood flows were from Simcyp, assuming an average human body weight of 50 kg was assumed for the patient population ([12]).
The human dose predictions were based on PK and PD data in hamsters (best case scenario) and mice (worst case scenario) and unbound plasma concentrations that led to 95% efficacy. Human profiles were simulated at different doses and dosing regimens (qd or bid) over 10-14 days using GastroPlus (version 9.8, Simulations Plus, Inc., Lancaster, CA). The PBPK model used fasted physiological conditions and a 50 kg 30-year-old American male. The Berezhkovskiy perfusion limited model was used for Kp estimation ([30]). The estimated human plasma clearance was input directly into the model with the assumption that elimination occurred only by hepatic metabolism (consistent with data in rats).

[31] = tested on: L5178Y mouse lymphoma cells; assay: In vitro mutation assay at the TK locus; type: cell-based; details: absence or presence of rat liver S9
Procedure: Two independent mutation tests were carried out: one in which cells were treated for 3 h in the presence of rat liver S9 mix and with […] as a positive control, and a second treated for 24 h in the absence of S9 mix and with […] as a positive control. In both cases, DMSO was used as the negative control. In accordance with current guidelines ICH S2(R1), 2011 ([41]) mutant frequency was counted at concentrations where solubility was not a limiting factor and cytotoxicity was not observed.

T1 sequence (P25021 whole entry): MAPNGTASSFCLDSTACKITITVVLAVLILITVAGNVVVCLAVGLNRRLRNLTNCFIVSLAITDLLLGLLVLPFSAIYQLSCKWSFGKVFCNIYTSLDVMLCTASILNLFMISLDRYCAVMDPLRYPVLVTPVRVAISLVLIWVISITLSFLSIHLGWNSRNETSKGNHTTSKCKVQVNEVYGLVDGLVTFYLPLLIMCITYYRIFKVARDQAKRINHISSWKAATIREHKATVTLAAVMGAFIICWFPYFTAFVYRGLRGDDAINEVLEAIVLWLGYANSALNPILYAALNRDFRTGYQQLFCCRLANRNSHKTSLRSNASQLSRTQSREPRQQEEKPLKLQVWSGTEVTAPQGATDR

Cc1[nH]c2nc(N)nc(C)c2c1-c1ccc(C#N)c2c1OCO2 [DNDI-6174]
remaining activity at 10 µM [1]: 120% | remaining activity at 10 µM [2]: 105% | remaining activity at 10 µM [3]: 107% | remaining activity at 10 µM [4]: 81.4% | remaining activity at 10 µM [5]: 63.1% | remaining activity at 10 µM [6]: 101% | remaining activity at 10 µM [7]: 90.6% | remaining activity at 10 µM [8]: 69.9% | remaining activity at 10 µM [9]: 81.9% | remaining activity at 10 µM [10]: 25.1% | remaining activity at 10 µM [11]: 100% | remaining activity at 10 µM [12]: 102% | remaining activity at 10 µM [13]: 102% | remaining activity at 10 µM [14]: 91.5% | remaining activity at 10 µM [15]: 113% | remaining activity at 10 µM [16]: 94.3% | remaining activity at 10 µM [17]: 126% | remaining activity at 10 µM [18]: 93.9% | remaining activity at 10 µM [19]: 104% | remaining activity at 10 µM [20]: 92.9% | remaining activity at 10 µM [21]: 103% | remaining activity at 10 µM [22]: 60.3% | remaining activity at 10 µM [23]: 93% | remaining activity at 10 µM [24]: 83.8% | remaining activity at 10 µM [25]: 91.4% | remaining activity at 10 µM [26]: 94.3% | remaining activity at 10 µM [27]: 98.5% | remaining activity at 10 µM [28]: 77.6% | remaining activity at 10 µM [29]: 91.8% | AUC ([30]; male, oral, 27 ug): 460 µg·h/mL | AUC ([30]; 4 ug): 60 µg·h/mL | clearance ([30]; from in vitro predictions, read-out: expected plasma clearance in humans): ~1 mL/min/kg | genotoxicity, in words [31]: not genotoxic
